Patent US8877707B2, “Inhibitors of HCV NS5A” (Presidio Pharmaceuticals, Inc., priority 2010, dated 2014)
Read-outs that look alike come from different tables or passages of the source.

Tested on: HCV genotype 1b replicon in Huh 7 cells
Experiment: HCV replicon assay (1b_Huh-Luc/Neo-ET cell line, luciferase readout)
Format: cell-based
Settings: Hepatitis C virus, read-out: Inhibition of HCV genotype 1b
Procedure: Biological activity of the compounds of the invention was determined using an HCV replicon assay. The 1b_Huh-Luc/Neo-ET cell line persistently expressing a bicistronic genotype 1b replicon in Huh 7 cells was obtained from ReBLikon GMBH. This cell line was used to test compound inhibition using luciferase enzyme activity readout as a measurement of compound inhibition of replicon levels.
On Day 1 (the day after plating), each compound is added in triplicate to the cells. Plates incubated for 72 h prior to running the luciferase assay. Enzyme activity was measured using a Bright-Glo Kit (cat. number E2620) manufactured by Promega Corporation. The following equation was used to generate a percent control value for each compound. % Control=(Average Compound Value/Average Control)*100
The EC50 value was determined using GraphPad Prism and the following equation: Y=Bottom+(Top−Bottom)/(1+10^((Log IC50−X)*HillSlope))
EC50 values of compounds are repeated several times in the replicon assay.

[1] = Table 1, genotype 1b replicon, Huh 7 cells, 72 h, luciferase
[2] = Table 2, genotype 1b replicon, Huh 7 cells, 72 h, luciferase

| SMILES | EC50 [1] [nM] | further results |
| --- | --- | --- |
| COC(=O)N[C@@H](C(=O)N1CCC[C@H]1c1nc(-c2cnc3cc(-c4ccc(-c5cnc([C@@H]6CCCN6C(=O)[C@H](NC(=O)OC)c6ccccc6)[nH]5)cn4)ccc3c2)c[nH]1)c1ccccc1 [compound 80] | < 1 | – |
| COC(=O)N[C@H](C(=O)N1CCC[C@H]1CNC(=O)c1ccc(-c2ccc3cc(-c4cnc([C@@H]5CCCN5C(=O)[C@@H](NC(=O)OC)C5CCOCC5)[nH]4)ccc3c2)cc1)C1CCOCC1 [compound 573] | – | EC50 (Huh-7, HCV 1b replicon): < 1 nM |
| COC(=O)N[C@@H](C(=O)N1CCC[C@H]1c1ncc(-c2ccc(-c3nc4cc(-c5cnc([C@@H]6CCCN6C(=O)[C@H](NC(=O)OC)c6ccccc6)[nH]5)ccc4n3C)cc2)[nH]1)c1ccccc1 [compound 233] | < 1 | – |
| COC(=O)N[C@H](C(=O)N1CCC[C@H]1c1nc2c([nH]1)-c1ccc(-c3ccc4cc(-c5cnc([C@@H]6CCCN6C(=O)[C@@H](NC(=O)OC)C6CCOCC6)[nH]5)ccc4n3)cc1CC2)C(C)C [293-1] | < 1 | – |
| COC(=O)N[C@H](C(=O)N1CCC[C@H]1c1nc(-c2ccc3cc(-c4ccc(-c5cnc([C@@H]6CCCN6C(=O)[C@H](NC(=O)OC)c6ccsc6)[nH]5)cc4)ccc3c2)c[nH]1)C1CCOCC1 [compound 110] | < 1 | – |
| COC(=O)N[C@H](C(=O)N1CCC[C@H]1c1nc(-c2ccc3cc(-c4ccc(-c5cnc([C@@H]6CCCN6C(=O)[C@H](NC(=O)NC(C)(C)C)c6ccccc6)[nH]5)cc4)ccc3c2)c[nH]1)C(C)C [compound 25] | < 1 | – |
| COC(=O)N[C@H](C(=O)N1CCC[C@H]1c1ncc(-c2ccc3cc(-c4ccc(-c5cnc([C@@H]6COCCN6C(=O)[C@H](NC(=O)OC)c6ccccc6)[nH]5)cc4)ccc3c2)[nH]1)[C@@H](C)OC [compound 323] | – | EC50 [2]: < 1 nM |
| COC(=O)N[C@H](C(=O)N1CCC[C@H]1c1nc(-c2ccc3cc(-c4ccc(-c5cnc([C@@H]6CCCN6C(=O)[C@H](NC(=O)OC)c6ccccc6)[nH]5)cc4C)ccc3c2)c[nH]1)C(C)C [compound 69] | < 1 | – |
| COC(=O)N[C@H](C(=O)N1CCC[C@H]1c1ncc(-c2ccc(-c3ccc4cc(-c5cnc([C@@H]6CCCN6C(=O)[C@@H](NC(=O)OC)[C@@H](C)OC)[nH]5)ccc4n3)cc2F)[nH]1)C(C)C [compound 475] | – | EC50 (Huh-7, HCV 1b replicon): < 1 nM |
| COC(=O)N[C@H](C(=O)N1CCC[C@H]1c1ncc(-c2ccc3cc(-c4cnc5nc([C@@H]6CCCN6C(=O)[C@@H](NC(=O)OC)C(C)C)[nH]c5c4)ccc3c2)[nH]1)C(C)C [compound 402] | – | EC50 [2]: 1 to 9.9 nM |
| CC[C@@H](C)[C@H](NC(=O)OC)C(=O)N1CCC[C@H]1c1ncc(-c2ccc3cc(-c4cc5[nH]c([C@@H]6CCCN6C(=O)[C@@H](NC(=O)OC)[C@H](C)CC)nc5cn4)ccc3c2)[nH]1 [compound 413] | – | EC50 [2]: < 1 nM |
| COC(=O)N[C@H](C(=O)N1CCC[C@H]1c1ncc(-c2ccc3cc(-c4ccc5nc([C@@H]6CCCN6C(=O)[C@@H](NC(=O)OC)C6CCCCC6)[nH]c5c4)ccc3c2)[nH]1)C1CCCCC1 [compound 348] | – | EC50 [2]: < 1 nM |
| C#CC[C@H](NC(=O)OC)C(=O)N1CCC[C@H]1c1ncc(-c2ccc3nc(-c4ccc(-c5cnc([C@@H]6CCCN6C(=O)[C@@H](NC(=O)OC)C(C)C)[nH]5)cc4F)ccc3c2)[nH]1 [compound 161] | < 1 | – |
| COC(=O)N[C@H](C(=O)N1CCC[C@H]1c1ncc(-c2ccc3cc(-c4ccc5nc([C@@H]6COCCN6C(=O)[C@@H](NC(=O)OC)C6CCCCC6)[nH]c5c4)ccc3c2)[nH]1)C1CCCCC1 [compound 361] | – | EC50 [2]: < 1 nM |
| COC(=O)N[C@H](C(=O)N1CCC[C@H]1c1ncc(-c2ccc3nc(-c4ccc(-c5cnc([C@@H]6CCCN6C(=O)[C@@H](NC(=O)OC)C6CCOCC6)[nH]5)c(F)c4)ccc3c2)[nH]1)C(C)C [compound 454] | – | EC50 (Huh-7, HCV 1b replicon): < 1 nM |
| COC(=O)N[C@H](C(=O)N1CCC[C@H]1c1nc(-c2ccc3nc(-c4ccc(-c5cnc([C@@H]6CCCN6C(=O)[C@@H](NC(=O)OC)[C@@H](C)OC)[nH]5)cc4)ccc3c2)c[nH]1)C(C)C [compound 43] | < 1 | – |
| COC(=O)N[C@H](C(=O)N1CCC[C@H]1c1ncc(-c2ccc(-c3ccc4cc(-c5cnc([C@@H]6CSCCN6C(=O)[C@@H](NC(=O)OC)C(C)C)[nH]5)ccc4c3)cc2)[nH]1)C(C)C [compound 308] | – | EC50 [2]: < 1 nM |
| CCNC(=O)N[C@@H](C(=O)N1CCC[C@H]1c1ncc(-c2ccc(-c3ccc4cc(-c5c[nH]c([C@@H]6CCCN6C(=O)[C@@H](NC(=O)OC)C(C)C)n5)ccc4c3)cc2)[nH]1)c1ccccc1 [compound 27] | < 1 | – |
| COC(=O)N[C@H](C(=O)N1CCC[C@H]1c1ncc(-c2ccc3cc(-c4ccc(-c5cnc([C@@H]6CCCN6C(=O)[C@H](NC(=O)OC)c6ccsc6)[nH]5)cc4)ccc3c2)[nH]1)[C@@H](C)O [compound 478] | – | EC50 (Huh-7, HCV 1b replicon): < 1 nM |

| SMILES | EC50 [1] [nM] | further results |
| --- | --- | --- |
| COC(=O)NC(C(=O)N1CCC[C@H]1c1ncc(-c2ccc3cc(-c4ccc(-c5cnc([C@@H]6CCCN6C(=O)[C@H](NC(=O)OC)c6ccccc6)[nH]5)cc4)ccc3c2)[nH]1)[C@@H](C)O (some centres unmarked) [compound 320] | – | EC50 [2]: < 1 nM |
| COC(=O)N[C@H](C(=O)N1CCOC[C@H]1c1ncc(-c2ccc(-c3ccc4cc(-c5cnc([C@@H]6CCCN6C(=O)[C@H](NC(=O)OC)c6ccccc6)[nH]5)ccc4c3)cc2)[nH]1)C(C)C [compound 137] | < 1 | – |
| CCC(CC)[C@H](NC(=O)OC)C(=O)N1CCC[C@H]1c1ncc(-c2ccc3cc(-c4ccc5nc([C@@H]6CCCN6C(=O)[C@@H](NC(=O)OC)C(CC)CC)[nH]c5c4)ccc3c2)[nH]1 [compound 227] | < 1 | – |
| COC(=O)N[C@H](C(=O)N1CCC[C@H]1c1ncc(-c2ccc3cc(-c4cc5[nH]c([C@@H]6CCCN6C(=O)[C@@H](NC(=O)OC)C6CCOCC6)nc5cc4F)ccc3c2)[nH]1)C1CCOCC1 [compound 702] | – | EC50 (Huh-7, HCV 1b replicon): < 1 nM |
| COC(=O)N[C@H](C(=O)N1CCC[C@H]1c1nc2ccc(-c3ccc4cc(-c5cnc([C@@H]6CCCN6C(=O)[C@@H](NC(=O)OC)C6CCOCC6)[nH]5)ccc4c3)cc2[nH]1)C(C)C [compound 190] | < 1 | – |
| COC(=O)N[C@H](C(=O)N1C[C@H](O)C[C@H]1c1ncc(-c2ccc(-c3ccc4cc(-c5cnc([C@@H]6CCCN6C(=O)[C@H](NC(=O)OC)c6ccccc6)[nH]5)ccc4n3)cc2)[nH]1)C(C)C [compound 148] | < 1 | – |
| COC(=O)N[C@H](C(=O)N1CCC[C@H]1c1ncc(-c2ccc(-c3cc4ccc(-c5cnc([C@@H]6CCCN6C(=O)[C@@H](NC(=O)OC)C6CCOCC6)[nH]5)cc4cn3)cc2F)[nH]1)C(C)C [compound 128] | < 1 | – |
| COC(=O)N[C@@H](C(=O)N1CCC[C@H]1C(=O)NCc1ccc(-c2ccc3cc(-c4cnc([C@@H]5CCCN5C(=O)[C@H](NC(=O)OC)c5ccccc5)[nH]4)ccc3n2)cc1)c1ccccc1 [compound 547] | – | EC50 (Huh-7, HCV 1b replicon): < 1 nM |
| COC(=O)N[C@H](C(=O)N1CCC[C@H]1c1nc2ccc(-c3ccc4cc(-c5ccc6nc([C@@H]7CCCN7C(=O)[C@@H](NC(=O)OC)C7CCOCC7)[nH]c6c5)ccc4c3)cc2[nH]1)C(C)C [compound 282] | < 1 | – |
| COC(=O)N[C@H](C(=O)N1CCC[C@H]1c1nc(-c2ccc3nc(-c4ccc(-c5cnc([C@@H]6CCCN6C(=O)[C@H](NC(=O)OC)c6ccccc6)[nH]5)cc4F)ccc3c2)c[nH]1)C(C)C [compound 107] | < 1 | – |
| CNC(=O)N[C@@H](C(=O)N1CCC[C@H]1c1ncc(-c2ccc(-c3cc4ccc(-c5cnc([C@@H]6CCCN6C(=O)[C@@H](NC(=O)OC)C6CCOCC6)[nH]5)cc4cn3)cc2)[nH]1)c1ccccc1 [compound 144] | < 1 | – |
| COC(=O)N[C@H](C(=O)N1CCC[C@H]1c1ncc(-c2ccc(-c3cc4ccc(-c5cnc([C@@H]6CCCN6C(=O)[C@H](NC(=O)OC6CCOCC6)c6ccccc6)[nH]5)cc4cn3)cc2F)[nH]1)C(C)C [compound 156] | < 1 | – |
| COC(=O)N[C@@H](C(=O)N1CCC[C@H]1c1ncc(-c2ccc(-c3nc4ccc(-c5cnc([C@@H]6CCCN6C(=O)[C@H](NC(=O)OC)c6ccccc6)[nH]5)cc4s3)cc2)[nH]1)c1ccccc1 [compound 230] | < 1 | – |
| CC[C@H](C)[C@H](NC(=O)OC)C(=O)N1CCC[C@H]1c1nc2ccc(-c3ccc4cc(-c5cnc([C@@H]6CCCN6C(=O)[C@@H](NC(=O)OC)[C@@H](C)OC)[nH]5)ccc4c3)nc2[nH]1 [compound 534] | – | EC50 (Huh-7, HCV 1b replicon): < 1 nM |
| COC(=O)N[C@@H](C)C(=O)N1CCC[C@H]1C(=O)N[C@H](C)c1ccc(-c2ccc3cc(-c4cnc([C@@H]5CCCN5C(=O)[C@H](C)NC(=O)OC)[nH]4)ccc3c2)cc1 [compound 560] | – | EC50 (Huh-7, HCV 1b replicon): 10 to 999 nM |
| CC[C@@H](C)[C@H](NC(=O)OC)C(=O)N1CCC[C@H]1c1ncc(-c2ccc3cc(-c4ccc5nc([C@@H]6CCCN6C(=O)[C@@H](NC(=O)OC)[C@H](C)CC)[nH]c5c4)ccc3c2)[nH]1 [compound 225] | < 1 | – |
| CNC(=O)N[C@@H](C(=O)N1CCC[C@H]1c1ncc(-c2ccc3nc(-c4ccc(-c5cnc([C@@H]6CCCN6C(=O)[C@@H](NC(=O)OC)C(C)C)[nH]5)cc4)sc3c2)[nH]1)c1ccccc1 [compound 245] | < 1 | – |
| COC(=O)N[C@H](C(=O)N1CCC[C@H]1c1nc(-c2ccc3cc(-c4ccc(-c5cnc([C@@H]6CCCN6C(=O)[C@@H](NC(=O)OC)C(C)C)[nH]5)nc4)ccc3c2)c[nH]1)C(C)C [compound 83] | < 1 | – |
| CNC(=O)N[C@@H](C(=O)N1CCC[C@H]1c1nc(-c2ccc3nc(-c4ccc(-c5cnc([C@@H]6CCCN6C(=O)[C@@H](NC(=O)OC)C(C)C)[nH]5)cc4)ccc3c2)c[nH]1)c1ccccc1 [compound 36] | < 1 | – |
